Reference: PubChem BioAssay (NCI)
Where “and” joins values, the source holds several entries; their conditions need not be identical. Identical values can stand only once.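 1) Cells in 96-well plates. 2) Compound, 48 h, 5 concentrations. 3) Linear interpolation between surrounding doses. 4) Unreached endpoint = highest concentration. GI50 is the concentration that inhibits growth by half. Definition used: TGI = concentration required for complete inhibition of growth.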

Assays:
Assay in all cases: NCI anticancer screen, dose series, 48 h
[1] = system: T-47D breast
[2] = system: CCRF-CEM leukemia
[3] = system: ACHN renal
[4] = system: SK-OV-3 ovarian
[5] = system: SNB-75 CNS
[6] = system: COLO 205 colon
[7] = system: HOP-62 NSCLC
[8] = system: SK-MEL-5 melanoma
[9] = system: SK-MEL-28 melanoma
[10] = system: SK-MEL-2 melanoma

Row | SMILES | TGI [1] [µM] | TGI [2] [µM] | TGI [3] [µM] | TGI [4] [µM] | TGI [5] [µM] | TGI [6] [µM] | TGI [7] | TGI [8] | TGI [9] | TGI [10] [µM] | GI50 [4] [µM] | GI50 [5] [µM] | GI50 [7] | GI50 [9] | GI50 [10] [µM] | GI50 [2] | GI50 [8]
1 | Cc1cc2nc(N3C(=O)/C(=C/Cc4ccco4)N=C3c3ccccc3)sc2cc1C | > 100 | 28.1 | 96.3 | > 100 | 59.9 | > 100 | > 100 µM | > 100 µM | > 100 µM | > 100 |  |  |  |  |  |  | 
2 | COc1cc2c(cc1OC)C1=C(C=O)c3ccc(OC)c(OC)c3C(O)N1CC2 (stereo unspecified) | 57.9 | > 100 | > 100 | > 100 | 38.6 | 64.1 | > 100 µM | 29.7 µM | > 100 µM | 28.7 |  |  |  |  |  |  | 
3 | COc1ccc2oc(=O)c(-c3cc4c(c(C)n3)c(=O)oc3ccc(OC)cc34)cc2c1 | > 100 | > 100 | 86 | > 100 | > 100 | > 100 | > 100 µM | > 100 µM | > 100 µM | > 100 |  |  |  |  |  |  | 
4 | CC(C)OC(=O)C(NC(=O)C(CC(=O)OCc1ccccc1)NC(=O)OCc1ccccc1)NC(=O)C1C(C)(C)CCC1(C)C (stereo unspecified) | > 69.5 | > 41.2 | 14.7 | 10.4 | 11.5 | 9.27 | 18.7 µM | 27.1 µM | > 56.2 µM | 58.4 |  |  |  |  |  |  | 
5 | COCc1cc2c(s1)C(=O)C1=C(C2=O)C2(C=C(Br)C(=O)C(Br)=C2)CCN1 | 9.2 | 16.7 | 18 | 30.7 | 27.9 | 12.4 |  | 5.62 µM | 20.3 µM | 15.2 |  |  |  |  |  |  | 
6 | CN(C)c1cccc2c(S(=O)(=O)NCCN)cccc12 | > 100 | > 100 | > 100 | > 100 | 64.1 | > 100 | > 100 µM | > 100 µM | > 100 µM | > 100 |  |  |  |  |  |  | 
7 | O=C(Nc1cccc2ccccc12)c1cc2ccccc2oc1=O | > 100 | > 100 | > 100 | > 100 | > 100 | > 100 | 49.4 µM | > 100 µM | > 100 µM | > 100 |  |  |  |  |  |  | 
8 | CN(Cc1cnc2nc(N)nc(N)c2n1)c1ccc(C(=O)NC(CCC(=O)O)C(=O)O)c2ccccc12 (stereo unspecified) | > 1000 | > 1000 | > 1000 | > 1000 |  |  |  | > 1000 µM |  | > 1000 | 55.3 | > 85.6 | < 0.0244 µM | 0.0616 µM | > 1000 |  | 
9 | COc1cc(C=O)cc(C=Nc2ccc(Br)cc2)c1O | > 100 | 27.7 | 49.4 | 7.83 | > 100 | 36.3 | 55.9 µM | 21.1 µM | > 100 µM | 17.6 |  |  |  |  |  |  | 
10 | COC(=O)C(Cc1ccccc1)NC(=O)C(CNC(=O)OCc1ccccc1)C(=O)OCc1ccccc1 (stereo unspecified) | > 100 | > 100 |  | > 100 | > 100 | > 100 | 39.9 µM and > 100 µM | > 100 µM and 31.4 µM | > 100 µM and 41.7 µM | > 100 |  |  | 18 µM and 94.1 µM | > 100 µM and 20.8 µM |  | > 100 µM and 38.5 µM | > 100 µM and 14.5 µM
11 | CC1(C)CCC[C@@]2(C)C1CC[C@@]1(CO)O[C@H](C3=CC(=O)OC3O)C[C@H]12 (stereo partly specified) | 25.8 | 10 | > 53.5 | 72.6 | 29.2 | 23.2 | 19.3 µM | 20.9 µM | 25.6 µM | 28.9 |  |  |  |  |  |  | 
12 | CC(=O)CCC1(C(=O)OCC(C)C)CCCC1=O (stereo unspecified) | > 100 | > 100 | > 100 | > 100 | > 100 | > 100 | > 100 µM | > 100 µM | > 100 µM | > 100 |  |  |  |  |  |  | 
13 | CC(C)(C)C(=O)c1c(O)c2ccccc2c2ccccc2c1=O | > 100 | > 100 | > 100 | > 100 | > 100 | > 100 | > 100 µM | > 100 µM | > 100 µM | > 100 |  |  |  |  |  |  | 
14 | O=c1c2[nH]cnc2n(-c2ccccc2)c(=S)n1-c1ccccc1 | > 100 | > 100 | > 100 | > 100 | > 100 | > 100 | > 100 µM | > 100 µM | > 100 µM | > 100 |  |  |  |  |  |  | 
15 | C[n+]1c2ccccc2n2c3ccccc3c(NCCCn3ccnc3)c(C#N)c21 | > 19.6 |  | > 27.7 | 38.8 | 4.66 | 4.4 | > 27 µM | 13.1 µM | 13.3 µM | 4.71 |  |  |  |  |  |  | 
16 | CC(C)CNP(=O)(NCC(C)C)Oc1ccc(CC(NC(=O)OCc2ccccc2)C(=O)OCc2ccccc2)cc1 (stereo unspecified) | 33.5 | 32.8 | 30.6 | 29.2 | 39.1 | 35.4 | 30.8 µM | 45.8 µM | 30.5 µM | 34.8 |  |  |  |  |  |  | 
17 | Cc1n[nH]c(=O)n1-n1cccc1 | > 100 | > 100 | > 100 | > 100 | > 100 | > 100 | > 100 µM | > 100 µM | > 100 µM | > 100 |  |  |  |  |  |  | 
18 | COC(=O)[C@H](C)NC(=O)[C@H](NS(=O)(=O)c1nc2ccccc2s1)c1ccccc1 | 32.4 | > 100 | > 100 | > 100 | 39.4 | 25.9 | 74.4 µM | 40.5 µM | 31.9 µM | 25.2 |  |  |  |  |  |  | 
19 | COC(=O)CCC(C)[C@H]1CCC2C3CC[C@@H]4CC5(CC[C@]4(C)C3C[C@H](OC(C)=O)[C@@]21C)OOC1(CCCCC1)OO5 (stereo partly specified) | 50 | > 100 | > 100 | > 100 | > 100 | > 100 | > 100 µM | 80.9 µM | > 100 µM | 52.2 |  |  |  |  |  |  | 
20 | Cc1nnc(SCc2nc(C#N)c(C#N)nc2CSc2nnc(C)s2)s1 | 17.3 |  | 22.5 | > 75.9 | 41.1 | 25.5 | 37.8 µM | 29.2 µM | > 90.8 µM | 63.4 |  |  |  |  |  |  | 
